Measurements published in patent US20070010568A1, “Substituted azabicyclo hexane derivatives as muscarinic receptor antagonists” (priority 2003, published 2007).

Legend:
[1] = target: T1, M2 muscarinic receptor (Rattus norvegicus, UniProt P10980); test: Radioligand binding assay, [3H]-N-methylscopolamine, rat heart membranes; settings: [3H]NMS, 24-25° C., read-out: Receptor Binding Assay M2 (pKi) (converted)
T1 construct: Submandibular glands and heart were isolated and placed in ice cold homogenising buffer; from tissue; host or cells: rat heart membrane homogenate
T1 sequence (P10980 1-466): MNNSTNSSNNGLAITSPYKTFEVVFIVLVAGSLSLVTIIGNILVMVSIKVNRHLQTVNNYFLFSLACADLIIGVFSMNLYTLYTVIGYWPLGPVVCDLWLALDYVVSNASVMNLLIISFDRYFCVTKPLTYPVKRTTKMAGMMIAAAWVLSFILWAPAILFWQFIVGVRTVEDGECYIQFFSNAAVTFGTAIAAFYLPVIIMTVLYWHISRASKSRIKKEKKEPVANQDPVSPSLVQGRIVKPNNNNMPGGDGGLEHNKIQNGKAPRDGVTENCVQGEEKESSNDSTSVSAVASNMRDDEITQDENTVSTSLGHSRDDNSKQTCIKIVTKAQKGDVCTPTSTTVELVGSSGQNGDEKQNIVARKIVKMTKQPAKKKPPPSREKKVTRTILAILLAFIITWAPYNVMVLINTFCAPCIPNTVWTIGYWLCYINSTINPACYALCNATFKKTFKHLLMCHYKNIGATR
Experimental: (§1) The affinity of test compounds for M2 and M3 muscarinic receptor subtypes was determined by [^3H]-N-methylscopolamine binding studies using rat heart and submandibular gland respectively as described by Moriya et al., (Life Sci., 1999; 64 (25): 2351-2358).
(§2) Membrane preparation: Submandibular glands and heart were isolated and placed in ice cold homogenising buffer (EPES 20 mM, 10 mM EDTA, pH 7.4) immediately after sacrifice. The tissues were homogenised in 10 volumes of homogenising buffer and the homogenate was filtered through two layers of wet gauze and filtrate was centrifliged at 500 g for 10 min. The supernatant was subsequently centrifuged at 40,000 g for 20 min. The pellet thus obtained was resuspended in same volume of assay buffer (HEPES 20 mM, EDTA 5 mM, pH 7.4) and were stored at −70° C. until the time of assay.
(§3) Ligand binding assay: The compounds were dissolved and diluted in DMSO. The membrane homogenates (150-250 μg protein) were incubated in 250 μl of assay buffer (HEPES 20 mM, pH 7.4) at 24-25° C. for 3 h. Non-specific binding was determined in the presence of 1 μM atropine. The incubation was terminated by vaccum filtration over GF/B fiber filters(Wallac). The filters were then washed with ice cold 50 mM Tris HCl buffer (pH 7.4). The filter mats were dried and bound radioactivity retained on filters was counted. The IC50 & Kd were estimated by using the non-linear curve fitting program using G Pad Prism software. The value of inhibition constant Ki was calculated from competitive binding studies by using Cheng & Prusoff equation (Biochem Pharmacol, 1973,22: 3099-3108), Ki=IC50/(1+L/Kd), where L is the concentration of [^3H]NMS used in the particular experiment. pKi=−log Ki Functional Experiments Using Isolated Rat Bladder: Methodology: […]

[2] = target: T2, M3 muscarinic receptor (Rattus norvegicus, UniProt P08483); test: Radioligand binding assay, [3H]-N-methylscopolamine, rat submandibular gland membranes; settings: [3H]NMS, 24-25° C., read-out: Receptor Binding Assay M3 (pKi) (converted)
T2 construct: Submandibular glands and heart were isolated and placed in ice cold homogenising buffer; from tissue; host or cells: rat submandibular gland membrane homogenate
T2 sequence (P08483 whole entry): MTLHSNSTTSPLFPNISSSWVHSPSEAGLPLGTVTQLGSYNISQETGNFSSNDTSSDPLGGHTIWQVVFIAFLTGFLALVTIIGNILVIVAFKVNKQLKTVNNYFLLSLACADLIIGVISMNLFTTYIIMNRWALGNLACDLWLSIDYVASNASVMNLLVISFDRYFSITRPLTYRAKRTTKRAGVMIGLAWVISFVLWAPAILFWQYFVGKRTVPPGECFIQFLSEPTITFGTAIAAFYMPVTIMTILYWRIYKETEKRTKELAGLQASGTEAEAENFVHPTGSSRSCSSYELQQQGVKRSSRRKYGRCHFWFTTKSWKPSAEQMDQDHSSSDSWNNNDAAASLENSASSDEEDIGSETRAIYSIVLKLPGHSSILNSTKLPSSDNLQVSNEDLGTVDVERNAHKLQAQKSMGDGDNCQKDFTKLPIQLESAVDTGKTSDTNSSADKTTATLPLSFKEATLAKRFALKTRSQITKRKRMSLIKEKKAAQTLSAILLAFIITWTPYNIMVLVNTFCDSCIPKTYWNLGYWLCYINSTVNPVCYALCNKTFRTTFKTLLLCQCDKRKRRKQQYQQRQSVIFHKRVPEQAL
Experimental: as §1, §2, §3

| Ki [1] | Ki [2] | Compound |
| --- | --- | --- |
| > 1 µM | > 1 µM | O=C(CC(c1ccccc1)(c1ccccc1)c1ccccc1)N[C@H]1[C@@H]2CN(Cc3ccccc3)C[C@@H]21 [Compound No. 1, (1α, 5α, 6α)-N-[3-benzyl-3-azabicyclo[3.1.0]-hexyl-6-amino-yl]-3,3,3-triphenylpropionaniide] |
| > 1 µM | > 1 µM | CC(C)=CCCN1C[C@@H]2[C@H](C1)[C@H]2NC(=O)CC(c1ccccc1)(c1ccccc1)c1ccccc1 [Compound No. 2, (1α, 5α, 6α)-N-[3-(4-methyl-3-pentenyl)-3-azabicyclo[3.1.0]-hexyl-6-amino-yl]-3,3,3-triphenyl propionamide] |
| > 1 µM | > 1 µM | O=C(CC(c1ccccc1)(c1ccccc1)c1ccccc1)N[C@H]1[C@@H]2CN(CCc3ccc4c(c3)OCO4)C[C@@H]21 [Compound No. 3, (1α, 5α, 6α)-N-[3-{2-(3,4-methylenedioxy-phenyl)ethyl}-3-azabicyclo [3.1.0]-hexyl-6-amino-yl]-3,3,3-triphenylpropionamide] |
| > 1 µM | > 1 µM | O=C(CC(c1ccccc1)(c1ccccc1)c1ccccc1)N[C@H]1[C@@H]2CN(CC(=O)c3ccc4c(c3)CCO4)C[C@@H]21 [Compound No. 4, (1α, 5α, 6α)-N-[3-{2-oxo-2-(2,3-dihydrobenzofuran-5-yl)ethyl}-3-azabicyclo[3.1.0]-hexyl-6-amino-yl]-3,3,3-triphenyl propionamide] |
| > 1 µM | > 1 µM | O=C(CCNC(=O)CNC(=O)CC(c1ccccc1)(c1ccccc1)c1ccccc1)NC[C@@H]1[C@H]2CN(Cc3ccccc3)C[C@@H]12 [Compound No. 5, (1α, 5α, 6α)-N-[(3-oxopropyl)amino-2-oxoethyl-3-benzyl-3-azabicyclo [3.1.0]-hexyl-6-aminomethyl]-3,3,3-triphenyl propionamide] |
| > 1 µM | > 1 µM | O=C(CNC(=O)CC(c1ccccc1)(c1ccccc1)c1ccccc1)NCCC(=O)N[C@H]1[C@@H]2CN(Cc3ccccc3)C[C@@H]21 [Compound No. 6, (1α, 5α, 6α)-N-[(3-oxopropyl]amino-2-oxoethyl-3-benzyl-3-azabicyclo [3.1.0]-hexyl-6-amino-yl]-3,3,3-triphenyl propionamide] |
| > 1 µM | > 1 µM | CCCOC(C(=O)N[C@H]1[C@@H]2CNC[C@@H]21)(c1ccc(F)cc1)c1ccc(F)cc1 [Compound No. 8, (1α, 5α, 6α)-N-[3-azabicyclo[3.1.0]-hexyl-6-amino-yl]-2-propyloxy-2,2-bis-4-fluorophenyl acetamide] |

| Compound | Ki [1] | Ki [2] |
| --- | --- | --- |
| O=C(N[C@H]1[C@@H]2CNC[C@@H]21)C(O)(c1ccc(F)cc1)c1ccc(F)cc1 [Compound No. 7, (1α, 5α, 6α)-N-[3-azabicylo[3.1.0]-hexyl-6-amino-yl]-2-hydroxy-2,2-bis-4-fluorophenyl acetamide] | > 1 µM | > 1 µM |
